For five compounds, pKa and Solubility results are on record in US9091804B2, “Polymer film, and optically-compensatory film, polarizer and liquid-crystal display device comprising the same” (FUJIFILM Corporation, priority 2004, dated 2015).

One data set can be described thus: physchem. To be noted: DMSO/water=7/3 solvent system.
Data set [1] is described as follows: solubility in 1.5 mol/liter aqueous NaOH at 55° C. (visual). To be noted: 1.5 mol/liter NaOH at 55° C., visual observation.

Some results are limits rather than exact numbers.

Compound `CCN(CC)S(=O)(=O)c1ccc(C)cc1` [A-42] displayed a pKa in “physchem” of more than 14. Also, the Solubility in data set [1] is recorded as less than 1%.

As to `OC(c1ccccc1)(c1ccccc1)c1ccccc1` [D-7], the pKa in the data set “physchem” was more than 14. The same compound gave a Solubility in data set [1] of less than 1%.

For the compound `CN(C(=O)c1ccccc1)c1ccccc1` [FA-1], the pKa in “physchem” was more than 14. Further, the Solubility in data set [1] is on record as less than 1%.

On to `CCN(C(=O)C1CCCCC1)C1CCCCC1` [FB-2], for which, in “physchem”, the pKa is more than 14. In data set [1], this compound showed a Solubility of less than 1%.

Take `O=C(C1CCCCC1)N(C1CCCCC1)C1CCCCC1` [FB-6]: in the data set “physchem”, the pKa was more than 14. Moreover, the Solubility in data set [1] is less than 1%.
